# Data taken from PubChem BioAssay AID330 (DTP/NCI, 2004).
# Where “and” joins values, the source holds several entries; their conditions need not be identical. Identical values can stand only once. Toxic doses and inconclusive results are not listed.
# Test system: P388 leukemia ip, CD2F1 mice, survival T/C
# Experiment: NCI In Vivo Anticancer Drug Screen. Data for tumor model P388 Leukemia (intraperitoneal) in CD2F1 (CDF1) mice
# Conditions: endpoint: median survival time, higher = longer survival
# Outline: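 Mice carrying the transplanted tumor received test compound or vehicle. Survival was recorded in each group, and the value is the treated-group measurement divided by that of the vehicle-treated control group.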
# [1] = dose: 50.0 mg/kg/injection, schedule: Q01DX009 (ip), vehicle: saline with Tween-80
# [2] = dose: 60.0 mg/kg/injection, schedule: Q01DX005 (ip), vehicle: saline with Tween-80
# [3] = dose: 120.0 mg/kg/injection, schedule: Q01DX005 (ip), vehicle: saline with Tween-80
# [4] = dose: 240.0 mg/kg/injection, schedule: Q01DX005 (ip), vehicle: saline with Tween-80
# [5] = dose: 50.0 mg/kg/injection, schedule: Q01DX005 (ip), vehicle: saline with Tween-80
# [6] = dose: 100.0 mg/kg/injection, schedule: Q01DX005 (ip), vehicle: saline with Tween-80
# [7] = dose: 200.0 mg/kg/injection, schedule: Q01DX005 (ip), vehicle: saline with Tween-80
# [8] = dose: 50.0 mg/kg/injection, schedule: Q01DX009 (ip), vehicle: saline
smiles,measurement,setting,value
CC1C=NNC1=O (centres undefined),T/C,"dose: 6.25 mg/kg/injection, schedule: Q01DX009 (ip), vehicle: saline with Tween-80",112 % of control
same,T/C,"dose: 125.0 mg/kg/injection, schedule: Q01DX009 (ip), vehicle: other",120 % of control
same,T/C,"dose: 125.0 mg/kg/injection, schedule: Q01DX009 (ip), vehicle: saline with Tween-80",100 % of control
same,T/C,"dose: 250.0 mg/kg/injection, schedule: Q01DX009 (ip), vehicle: other",115 % of control
same,T/C,"dose: 500.0 mg/kg/injection, schedule: Q01DX009 (ip), vehicle: other",175 % of control
same,T/C,"dose: 1000.0 mg/kg/injection, schedule: Q01DX009 (ip), vehicle: saline with Tween-80",172 % of control
CCN(CC)CCNc1ccc(C)c2sc3ccc(N)cc3c(=O)c12,T/C,"dose: 12.5 mg/kg/injection, schedule: Q01DX009 (ip), vehicle: saline with Tween-80",120 % of control
same,T/C,"dose: 25.0 mg/kg/injection, schedule: Q01DX009 (ip), vehicle: saline with Tween-80",103 % of control
same,T/C,[1],124 % of control
same,T/C,"dose: 100.0 mg/kg/injection, schedule: Q01DX009 (ip), vehicle: saline with Tween-80",118 % of control
O=Cc1c(-c2ccccc2)nc2sc(-c3ccc4c(c3)OCO4)nn12,T/C,[2],102 % of control
same,T/C,[3],99 % of control
same,T/C,[4],99 % of control
O=C(NCc1ccc(S(=O)(=O)F)cc1)Oc1ccc([N+](=O)[O-])cc1,T/C,"dose: 7.5 mg/kg/injection, schedule: Q01DX005 (ip), vehicle: saline with Tween-80",102 % of control
same,T/C,"dose: 15.0 mg/kg/injection, schedule: Q01DX005 (ip), vehicle: saline with Tween-80",96 % of control
same,T/C,"dose: 30.0 mg/kg/injection, schedule: Q01DX005 (ip), vehicle: saline with Tween-80",99 % of control
same,T/C,[2],99 % of control and 112 % of control
O=[N+]([O-])c1ccc2c(c1)C1CN(Cc3ccccc31)C2 (centres undefined),T/C,"dose: 100.0 mg/kg/injection, schedule: Q01DX001 (ip), vehicle: saline with Tween-80",90 % of control
same,T/C,"dose: 200.0 mg/kg/injection, schedule: Q01DX001 (ip), vehicle: saline with Tween-80",89 % of control
same,T/C,"dose: 400.0 mg/kg/injection, schedule: Q01DX001 (ip), vehicle: saline with Tween-80",97 % of control
CC1CC(N=Cc2ccc3c(c2)OCO3)CC(C)(C)C1 (centres undefined),T/C,[5],103 % of control
same,T/C,[6],96 % of control
same,T/C,[7],97 % of control
CC(C)(C)c1ccc(S(=O)(=O)O)cc1,T/C,[8],103 % of control
same,T/C,"dose: 100.0 mg/kg/injection, schedule: Q01DX009 (ip), vehicle: saline",100 % of control
same,T/C,"dose: 200.0 mg/kg/injection, schedule: Q01DX009 (ip), vehicle: saline",86 % of control
COC(=O)/C=C/CCOC1CCCCO1 (centres undefined),T/C,"dose: 50.0 mg/kg/injection, schedule: Q01DX009 (ip), vehicle: other",108 % of control
same,T/C,"dose: 100.0 mg/kg/injection, schedule: Q01DX009 (ip), vehicle: other",112 % of control
same,T/C,"dose: 200.0 mg/kg/injection, schedule: Q01DX009 (ip), vehicle: other",107 % of control
CCC(C)CN1CCc2c3c(c(OC)c(OC)c2C1)CCC3 (centres undefined),T/C,"dose: 100.0 mg/kg/injection, schedule: Q04DX002 (ip), vehicle: saline",101 % of control
same,T/C,"dose: 200.0 mg/kg/injection, schedule: Q04DX002 (ip), vehicle: saline",101 % of control
COc1ccc(Cl)c(C)c1C(=O)OC1CC(OC2C(O)CC(OC3CCCC4C3C=CC3CCCC/C=C/C5C=C(C(=O)O)C(C)CC56OC(=O)C(=C6O)OC(=O)C34C)OC2C)OC(C)C1O (centres undefined),T/C,"dose: 25.0 mg/kg/injection, schedule: Q01DX009 (ip), vehicle: Klucel (hydroxypropylcellulose) (HPC)",103 % of control
same,T/C,"dose: 50.0 mg/kg/injection, schedule: Q01DX009 (ip), vehicle: Klucel (hydroxypropylcellulose) (HPC)",97 % of control
same,T/C,"dose: 100.0 mg/kg/injection, schedule: Q01DX009 (ip), vehicle: Klucel (hydroxypropylcellulose) (HPC)",89 % of control
N#CCCN(CCC#N)Cc1c(O)c(O)c(CN(CCC#N)CCC#N)c2ccccc12,T/C,[5],102 % of control and 105 % of control
same,T/C,[6],115 % of control and 118 % of control
same,T/C,[7],122 % of control and 124 % of control
CCC1C[N+]2(C)CCc3cc(OC)c(OC)cc3C2CC1=O (centres undefined),T/C,"dose: 12.5 mg/kg/injection, schedule: Q01DX009 (ip), vehicle: saline",94 % of control
same,T/C,"dose: 25.0 mg/kg/injection, schedule: Q01DX009 (ip), vehicle: saline",93 % of control
same,T/C,[1],106 % of control
same,T/C,[8],100 % of control
CC(C)(C)OC1COCCO1 (centres undefined),T/C,[2],102 % of control
same,T/C,[3],99 % of control
same,T/C,[4],93 % of control
